This note sets out measurements from patent US20240124418A1 (BioTheryX, Inc., priority 2020, published 2024).

The subject of this test is TNF-α. In words: Cell-based TNF-α inhibition assay (LPS-induced PBMCs, Meso Scale). The note with it: PBMC, PBMCs pretreated 1 h, LPS 100 ng/mL 18-24 h, percentage of stimulated DMSO control; for inhibition at 0.1 µM: compound concentration 0.1 μM; for inhibition at 1 µM: compound concentration 1 μM. The protocol:
Example B1. Cell-Based TNF-α Inhibition Assay
Frozen primary blood mononuclear cells (PBMCs) were quick thawed, washed once with RPMI 1640 media supplemented with 10% fetal bovine serum, 1% penicillin, and 1% streptomycin, and plated in a 96 well plate at 200,000 cells per well. The cells were pretreated with DMSO only as a control or a compound for 1 h, and then induced with LPS (lipopolysaccharide) (100 ng/mL) for 18-24 h. The supernatant was analyzed for TNF-α using the Meso Scale assay. Compound activity was determined as a percentage of the stimulated DMSO control. The results are summarized in Table 1, where A represents a percent inhibition value ≥60%; B represents a percent inhibition value <60% and ≥40%; C represents a percent inhibition value <40% and ≥20%; and D represents a single percent inhibition value <20%.

The inhibition is how much of the control response was suppressed.

Regarding `CCOc1cc([C@@H](CS(C)(=O)=O)N2C(=O)c3cc(CCCCCCCCCCCCNc4cccc(NC5CCC(=O)NC5=O)c4)cc(NC(C)=O)c3C2=O)ccc1OC` (stereo partly drawn) [Compound A89, N-{6-[12-({3-[(2,6-Dioxopiperidin-3-yl)amino]phenyl}amino)dodecyl]-2-[(1S)-1-(3-ethoxy-4-methoxyphenyl)-2-methanesulfonylethyl]-1,3-dioxo-2,3-dihydro-1H-isoindol-4-yl}acetamide], the inhibition at 0.1 µM was at least 60% and the inhibition at 1 µM was at least 60%.
For `O=C1CCC(N2Cc3c(cc(F)cc3C3CCN(CCCCCCCCCOc4ccc(C(=O)Nc5c(Cl)cncc5Cl)cc4OCC4CC4)CC3)C2=O)C(=O)N1` (centres unmarked) [Compound B12, 3-(Cyclopropylmethoxy)-N-(3,5-dichloropyridin-4-yl)-4-((9-(4-(2-(2,6-dioxopiperidin-3-yl)-6-fluoro-1-oxoisoindolin-4-yl)piperidin-1-yl)nonyl)oxy)benzamide], the inhibition at 0.1 µM lay within 20 to 40%.
In the case of `CCOc1cc([C@@H](CS(C)(=O)=O)N2C(=O)c3cccc(NCCc4ccc(CCCCNCc5ccc(OCc6scc7c6CN(C6CCC(=O)NC6=O)C7=O)cc5)cc4)c3C2=O)ccc1OC` (stereo partly drawn) [Compound A51, 4-({2-[4-(4-{[(4-{[5-(2,6-Dioxopiperidin-3-yl)-4-oxo-4H,5H,6H-thieno[3,4-c]-pyrrol-1-yl]methoxy}phenyl)methyl]amino}butyl)phenyl]ethyl}amino)-2-[(1S)-1-(3-ethoxy-4-methoxyphenyl)-2-methanesulfonylethyl]-2,3-dihydro-1H-isoindole-1,3-dione], the inhibition at 0.1 µM is at least 60% and the inhibition at 1 µM is at least 60%.
With `CCOc1cc([C@@H](CS(C)(=O)=O)N2C(=O)c3cccc(CCCCCCCCCCNCc4ccc(OCc5scc6c5CN(C5CCC(=O)NC5=O)C6=O)cc4)c3C2=O)ccc1OC` (stereo partly drawn) [Compound A49, 4-(10-{[(4-{[5-(2,6-Dioxopiperidin-3-yl)-4-oxo-4H,5H,6H-thieno[3,4-c]pyrrol-1-yl]methoxy}phenyl)methyl]amino}decyl)-2-[(1S)-1-(3-ethoxy-4-methoxyphenyl)-2-methanesulfonylethyl]-2,3-dihydro-1H-isoindole-1,3-dione], the inhibition at 0.1 µM was at least 60% and the inhibition at 1 µM was at least 60%.
In the case of `CCOc1cc([C@@H](CS(C)(=O)=O)N2C(=O)c3cccc(NC(=O)CCCCCCCCCN4CCN(CC(=O)Nc5ccc6c(C7CCC(=O)NC7=O)nn(C)c6c5)CC4)c3C2=O)ccc1OC` (stereo partly drawn) [Compound A79, 10-[4-({[3-(2,6-Dioxopiperidin-3-yl)-1-methyl-1H-indazol-6-yl]carbamoyl}-methyl)piperazin-1-yl]-N-{2-[(1S)-1-(3-ethoxy-4-methoxyphenyl)-2-methanesulfonylethyl]-1,3-dioxo-2,3-dihydro-1H-isoindol-4-yl}decanamide], the inhibition at 0.1 µM was at least 60% and the inhibition at 1 µM was at least 60%.
For the molecule `CCOc1cc([C@@H](CS(C)(=O)=O)N2C(=O)c3cc(CCCN4CCC(c5cc(F)cc6c5CN(C5CCC(=O)NC5=O)C6=O)CC4)cc(NC(C)=O)c3C2=O)ccc1OC` (stereo partly drawn) [Compound A5, N-(6-(3-(4-(2-(2,6-Dioxopiperidin-3-yl)-6-fluoro-1-oxoisoindolin-4-yl)piperidin-1-yl)propyl)-2-((S)-1-(3-ethoxy-4-methoxyphenyl)-2-(methylsulfonyl)ethyl)-1,3-dioxoisoindolin-4-yl)acetamide], the inhibition at 0.1 µM is at least 60%.
On to `CCOc1cc([C@@H](CS(C)(=O)=O)N2C(=O)c3cc(CCCCCCCCCCCCC(=O)N[C@H](C(=O)N4C[C@H](O)C[C@H]4C(=O)NCc4ccc(-c5scnc5C)cc4)C(C)(C)C)cc(NC(C)=O)c3C2=O)ccc1OC` [Compound A61, (2S,4R)-1-[(2S)-2-(13-{7-Acetamido-2-[(1S)-1-(3-ethoxy-4-methoxyphenyl)-2-methanesulfonylethyl]-1,3-dioxo-2,3-dihydro-1H-isoindol-5-yl}tridecanamido)-3,3-dimethylbutanoyl]-4-hydroxy-N-{[4-(4-methyl-1,3-thiazol-5-yl)phenyl]methyl}pyrrolidine-2-carboxamide], for which the inhibition at 0.1 µM is at least 60% and the inhibition at 1 µM was at least 60%.
With `CCOc1cc([C@@H](CS(C)(=O)=O)N2C(=O)c3cccc(NC(=O)CCCCCCOc4cc(-c5scnc5C)ccc4CNC(=O)[C@@H]4C[C@@H](O)CN4C(=O)[C@@H](NC(C)=O)C(C)(C)C)c3C2=O)ccc1OC` [Compound A76, (2S,4R)-1-[(2S)-2-Acetamido-3,3-dimethylbutanoyl]-N-[(2-{[6-({2-[(1S)-1-(3-ethoxy-4-methoxyphenyl)-2-methanesulfonylethyl]-1,3-dioxo-2,3-dihydro-1H-isoindol-4-yl}-carbamoyl)hexyl]oxy}-4-(4-methyl-1,3-thiazol-5-yl)phenyl)methyl]-4-hydroxypyrrolidine-2-carboxamide], the inhibition at 0.1 µM was in the range of 40 to 60% and the inhibition at 1 µM was at least 60%.
`CCOc1cc([C@@H](CS(C)(=O)=O)N2C(=O)c3cccc(NC(=O)CCCCCN4CCC(N5CCC(c6cc7c(cc6F)C(=O)N(C6CCC(=O)NC6=O)C7)CC5)CC4)c3C2=O)ccc1OC` (stereo partly drawn) [Compound A29, 6-{4-[2-(2,6-Dioxopiperidin-3-yl)-6-fluoro-1-oxo-2,3-dihydro-1H-isoindol-5-yl]-[1,4′-bipiperidin]-1′-yl}-N-{2-[(1S)-1-(3-ethoxy-4-methoxyphenyl)-2-methanesulfonylethyl]-1,3-dioxo-2,3-dihydro-1H-isoindol-4-yl}hexanamide]: the inhibition at 0.1 µM lay in the range of 40 to 60% and the inhibition at 1 µM was at least 60%.
Take `CCOc1cc([C@@H](CS(C)(=O)=O)N2C(=O)c3cccc(NC(=O)CCCc4cn(CCN5CCC(c6cc7c(cc6F)C(=O)N(C6CCC(=O)NC6=O)C7)CC5)nn4)c3C2=O)ccc1OC` (stereo partly drawn) [Compound A24, 4-[1-(2-{4-[2-(2,6-Dioxopiperidin-3-yl)-6-fluoro-1-oxo-2,3-dihydro-1H-isoindol-5-yl]piperidin-1-yl}ethyl)-1H-1,2,3-triazol-4-yl]-N-{2-[(1S)-1-(3-ethoxy-4-methoxyphenyl)-2-methanesulfonylethyl]-1,3-dioxo-2,3-dihydro-1H-isoindol-4-yl}butanamide]: the inhibition at 0.1 µM was at least 60% and the inhibition at 1 µM was at least 60%.
As for `O=C1CCC(N2Cc3c(cc(F)cc3C3CCN(CCCCCOc4cc(C(=O)Nc5c(Cl)cncc5Cl)ccc4OC(F)F)CC3)C2=O)C(=O)N1` (centres unmarked) [Compound B5, N-(3,5-Dichloropyridin-4-yl)-4-(difluoromethoxy)-3-((5-(4-(2-(2,6-dioxo-piperidin-3-yl)-6-fluoro-1-oxoisoindolin-4-yl)piperidin-1-yl)pentyl)oxy)benzamide], the inhibition at 0.1 µM is at least 60%.
For `O=C1CCC(N2Cc3c(csc3COc3ccc(CNCCCCCCCOc4cc(C(=O)Nc5c(Cl)cncc5Cl)ccc4OC(F)F)cc3)C2=O)C(=O)N1` (centres unmarked) [Compound B18, N-(3,5-Dichloropyridin-4-yl)-4-(difluoromethoxy)-3-((7-((4-((5-(2,6-dioxo-piperidin-3-yl)-4-oxo-5,6-dihydro-4H-thieno[3,4-c]pyrrol-1-yl)methoxy)benzyl)amino)heptyl)-oxy)benzamide], the inhibition at 0.1 µM is at least 60% and the inhibition at 1 µM was at least 60%.
Consider `CCOc1cc([C@@H](CS(C)(=O)=O)N2C(=O)c3c(N)ccc(CCCCCCCCCCCCN4CCC(c5cc(F)cc6c5CN(C5CCC(=O)NC5=O)C6=O)CC4)c3C2=O)ccc1OC` (stereo partly drawn) [Compound A18, 4-Amino-7-(12-{4-[2-(2,6-Dioxopiperidin-3-yl)-6-fluoro-1-oxo-2,3-dihydro-1H-isoindol-4-yl]piperidin-1-yl}dodecyl)-2-[(1S)-1-(3-ethoxy-4-methoxyphenyl)-2-methanesulfonylethyl]-2,3-dihydro-1H-isoindole-1,3-dione], for which the inhibition at 0.1 µM is at least 60% and the inhibition at 1 µM was at least 60%.
Regarding `CCOc1cc([C@@H](CS(C)(=O)=O)N2C(=O)c3cccc(NC(=O)CCCCCCCCCCC(=O)N[C@H](C(=O)N4C[C@H](O)C[C@H]4C(=O)NCc4ccc(-c5scnc5C)cc4)C(C)(C)C)c3C2=O)ccc1OC` [Compound A64, N-{2-[(1S)-1-(3-Ethoxy-4-methoxyphenyl)-2-methanesulfonylethyl]-1,3-dioxo-2,3-dihydro-1H-isoindol-4-yl}-N′-[(2S)-1-[(2S,4R)-4-hydroxy-2-({[4-(4-methyl-1,3-thiazol-5-yl)phenyl]methyl}carbamoyl)pyrrolidin-1-yl]-3,3-dimethyl-1-oxobutan-2-yl]dodecanediamide], the inhibition at 0.1 µM is at least 60% and the inhibition at 1 µM is at least 60%.
As to `CCOc1cc([C@@H](CS(C)(=O)=O)N2C(=O)c3cccc(NC(=O)CCCCCN4CCN(CC(=O)Nc5cccc(C6CCC(=O)NC6=O)c5)CC4)c3C2=O)ccc1OC` (stereo partly drawn) [Compound A87, 6-[4-({[3-(2,6-Dioxopiperidin-3-yl)phenyl]carbamoyl}methyl)piperazin-1-yl]-N-{2-[(1S)-1-(3-ethoxy-4-methoxyphenyl)-2-methanesulfonylethyl]-1,3-dioxo-2,3-dihydro-1H-isoindol-4-yl}hexanamide], the inhibition at 0.1 µM was at least 60% and the inhibition at 1 µM is at least 60%.
With `CCOc1cc([C@@H](CS(C)(=O)=O)N2C(=O)c3cccc(CCCCCCCCCCC(=O)N[C@H](C(=O)N4C[C@H](O)C[C@H]4C(=O)NCc4ccc(-c5scnc5C)cc4)C(C)(C)C)c3C2=O)ccc1OC` [Compound A62, (2S,4R)-1-[(2S)-2-(11-{2-[(1S)-1-(3-Ethoxy-4-methoxyphenyl)-2-methanesulfonylethyl]-1,3-dioxo-2,3-dihydro-1H-isoindol-4-yl}undecanamido)-3,3-dimethylbutanoyl]-4-hydroxy-N-{[4-(4-methyl-1,3-thiazol-5-yl)phenyl]methyl}pyrrolidine-2-carboxamide], the inhibition at 0.1 µM is at least 60% and the inhibition at 1 µM is at least 60%.
